The target in one data set is T1, human β-FXIIa (Homo sapiens, UniProt P00748).
T1 construct: human β-FXIIa, HFXIIAB, > 95% purity; Molecular Innovations; purchased Molecular Innovations HFXIIAB
Description: Serine protease inhibition assay, fluorogenic substrate, FXIIa. The data set is classed as biochemical. The following applies: 200 µM, endpoint RFU after 1 h, 25 °C. The procedure:
(§1) The inhibitory activity of further semi-synthesized compounds toward the coagulation factor XIIa, thrombin, FXIa, FXa, and trypsin was measured by quantifying the hydrolysis rate of the fluorogenic substrates as reported previously ([Korff et al., 2020]; [Platte et al., 2021]; [Imberg et al., 2022]). Briefly, the activity was tested in buffer (10 mM Tris-Cl, 150 mM NaCl, 10 mM MgCl2·6 H2O, 1 mM CaCl2·2 H2O, 0.1% w/v BSA, 0.01% v/v Triton-X100, pH 7.4) utilizing clear flat-bottom, black polystyrene 96-well plates. The enzymes (human β-FXIIa, HFXIIAB, > 95% purity; Molecular Innovations, 2.5 nM – final concentration; human α-thrombin (active) protein, ABIN2127880, > 95% purity; antibodies-online, 0.25 nM – final concentration; human Factor Xa, HFXA, > 95% purity; Molecular Innovations, 2.5 nM – final concentration; human factor XIa, HFXIA, >95% purity; Molecular Innovations, 0.5 nM – final concentration porcine trypsin; Merck, 3.5 nM – final concentration) and the fluorogenic substrates for FXIIa: Boc-Gln-Gly-Arg-AMC (Pepta Nova, 25 µM – final concentration, Km = 167 µM); for thrombin: Boc Val Pro Arg AMC (Pepta Nova, 25 µM – final concentration, Km = 18 µM); for FXa: Boc-Ile-Glu-Gly-Arg-AMC (Pepta Nova, 25 µM – final concentration); for FXIa: Boc-Glu-(OBzl)-Ala-Arg-AMC (Pepta Nova, 25 µM – final concentration); for trypsin: Z-Gly-Gly-Arg-AMC (Sigma-Aldrich, 25 µM – final concentration) were used. The fluorogenic substrate solution was added into the wells followed by the addition of test-compounds solution, and the reaction was triggered by addition of the enzyme solution (final testing volume – 150 µL). In case of blank (substrate + buffer) and control (substrate + enzyme) wells, DMSO was added instead of the test-compounds’ solution. Fluorescence intensity was measured with Microplate Reader Mithras LB 940 (Berthold Technologies, excitation at 355 nm, emission at 460 nm) for a period of 1 h with a read every minute. The reactions were performed at 25 °C. To derive % of enzyme inhibition, endpoint RFU (single fluorescence reading after 1 h) was used. As a positive controls for thrombin, FXa, FXIIa, FXIa, and trypsin were used dabigatran (500 nM), rivaroxaban (500 nM), compound “39b” (500 nM) ([Platte et al., 2021]), Inhibitor 5t (8 µM) ([Imberg et al., 2022]), Inhibitor E (2 µM) ([Erbacher et al., 2024]), respectively. Semi-synthesized compounds were screened at 200 µM.

Data set [1] has as its target T2, human Factor Xa (Homo sapiens, UniProt P00742).
T2 construct: human Factor Xa, HFXA, > 95% purity; Molecular Innovations; purchased Molecular Innovations HFXA
Description: Serine protease inhibition assay, fluorogenic substrate, FXa. To be noted: 200 µM, endpoint RFU after 1 h, 25 °C. The class given is biochemical. The procedure: (§2) The inhibitory activity of further semi-synthesized compounds toward the coagulation factor XIIa, thrombin, FXIa, FXa, and trypsin was measured by quantifying the hydrolysis rate of the fluorogenic substrates as reported previously ([Korff et al., 2020]; [Platte et al., 2021]; [Imberg et al., 2022]). Briefly, the activity was tested in buffer (10 mM Tris-Cl, 150 mM NaCl, 10 mM MgCl2·6 H2O, 1 mM CaCl2·2 H2O, 0.1% w/v BSA, 0.01% v/v Triton-X100, pH 7.4) utilizing clear flat-bottom, black polystyrene 96-well plates. […] Fluorescence intensity was measured with Microplate Reader Mithras LB 940 (Berthold Technologies, excitation at 355 nm, emission at 460 nm) for a period of 1 h with a read every minute. […] To derive % of enzyme inhibition, endpoint RFU (single fluorescence reading after 1 h) was used. […]

The next data set deals with T3, human factor XIa (Homo sapiens, UniProt P03951).
T3 construct: human factor XIa, HFXIA, >95% purity; Molecular Innovations; purchased Molecular Innovations HFXIA
Description: Serine protease inhibition assay, fluorogenic substrate, FXIa. The class given is biochemical. To be noted: endpoint RFU after 1 h, 25 °C. As for the experimental part:
as §1

The next data set concerns the target T4, porcine trypsin (Sus scrofa, UniProt P00761).
T4 construct: porcine trypsin; Merck, 3.5 nM – final concentration; purchased Merck
Description: Serine protease inhibition assay, fluorogenic substrate, trypsin. To be noted: 200 µM, endpoint RFU after 1 h, 25 °C. The data set is classed as biochemical. As for the experimental part: as §2

Data set [2] in a line: Hepatic phase II sulfation, human cytosol. The data set is classed as in vitro ADME. To be noted: 50 µM, 4 h. The procedure:
(§3) Liver microsomes and cytosol were obtained for two organisms, horse and human. Fresh horse liver was purchased locally cut to pieces of ca. 50 g each and frozen in liquid nitrogen. Until further usage, the liver was stored at -80 °C. The preparation of microsomes and cytosol was carried out according to Balk et al. ([Balk et al., 1984]), and the protein content was determined by Bradford assay with bovine serum albumin as a reference ([Bradford, 1976]). Human liver microsomes and cytosol (150 Donors Ultrapool™) were provided by Corning, Inc. (Corning, New York, NY, USA). Besides assay-specific positive controls, all assays included stability controls, moreover, matrix influences were considered. For oxidation, additional non-oxidation controls were included. Each experiment was performed in duplicate. All stated concentrations are final concentration values. The test compounds (acetoxystachybotrylactam acetate-tryptophan 2a, 2b and acetoxystachybotrylactam acetate-tryptamine 3a, 3b ) were extended by the most biologically active derivative previously characterized by our group (acetoxystachybotrylactam acetate-agmatine 4 ) ([Steinert et al., 2022]).
(§4) For phase II metabolism, potential sulfation and glucuronidation were investigated. For sulfation, the reaction mixture was pipetted as follows: first, ultrapure water was added and mixed with a 1 mM DTT solution (contains DTT, 100 mM phosphate buffer, 100 µM ascorbic acid, pH 7.4). Then, PAPS (100 µM) and the substance of interest (50 µM) were added, which was concluded by the addition of horse/human cytosol (10 mg protein/mL). For glucuronidation, first, ultrapure H2O, phosphate buffer (50 mM) and MgCl2 (5 mM) were added to the reaction vessel, followed by addition of the investigated substance (50 µM), UDPGA (5 µM), and horse/human microsomes (1 mg protein/mL), respectively. For both assays, the final volume was 100 µL which was subsequently incubated for 4 h at 37 °C in darkness. […] After centrifugation (4 °C, 10 min, 15,000 rpm), 150 µL of supernatant was diluted with 850 µL H2O, which was subsequently analyzed by HPLC-qToF-HRMS. […]

A short description of data set [3]: Hepatic phase II sulfation, horse cytosol. The class given is in vitro ADME. The following applies: 50 µM, 4 h. As for the experimental part: as §3, §4
Data set [4] in a line: Precipitation in cell culture medium. To be noted: cell culture medium (DMEM), 0.5% DMSO. The data set is classed as physicochemical.
Data set [5] concerns lung adenocarcinoma cells (A549, CCL-185). To be noted: A549, 24 h incubation, resazurin. For orientation: Alamar Blue is a resazurin reagent that responds to reducing activity.
A further data set has as its system human α-thrombin. On the set-up: method as in Steinert et al., 2022. To be noted: 500 nM; ref Steinert et al., 2022; cited from earlier work.
Data set [6] concerns the target T2, human Factor Xa. On the set-up: method as in Steinert et al., 2022. The following applies: 500 nM; ref Steinert et al., 2022; cited from earlier work.
A short description of data set [7]: Hepatic phase I metabolism (oxidation), human microsomes. The class given is in vitro ADME. To be noted: 10 µM, 90 min. The procedure:
as §3
(§5) The phase I metabolism was investigated utilizing a NADPH- regenerating system. […] After centrifugation (4 °C, 10 min, 15,000 rpm), 150 µL of supernatant was diluted with 850 µL H2O, which was subsequently analyzed by HPLC-qToF-HRMS. […]

A short description of data set [8]: Hepatic phase I metabolism (oxidation), horse microsomes. The class given is in vitro ADME. To be noted: 10 µM, 90 min. The procedure: as §3, §5
Data set [9] can be described thus: Hepatic phase II glucuronidation, human microsomes. The data set is classed as in vitro ADME. To be noted: human microsomes, 50 µM, 4 h. The procedure:
as §3
For phase II metabolism, potential sulfation and glucuronidation were investigated. For sulfation, the reaction mixture was pipetted as follows: first, ultrapure water was added and mixed with a 1 mM DTT solution (contains DTT, 100 mM phosphate buffer, 100 µM ascorbic acid, pH 7.4). Then, PAPS (100 µM) and the substance of interest (50 µM) were added, which was concluded by the addition of horse/human cytosol (10 mg protein/mL). For glucuronidation, first, ultrapure H2O, phosphate buffer (50 mM) and MgCl2 (5 mM) were added to the reaction vessel, followed by addition of the investigated substance (50 µM), UDPGA (5 µM), and horse/human microsomes (1 mg protein/mL), respectively. For both assays, the final volume was 100 µL which was subsequently incubated for 4 h at 37 °C in darkness. Quenching and protein precipitation was achieved by adding 200 µL of cold MeCN (-20 °C). After centrifugation (4 °C, 10 min, 15,000 rpm), 150 µL of supernatant was diluted with 850 µL H2O, which was subsequently analyzed by HPLC-qToF-HRMS. For both experiments, 50 µM 7-hydroxycumarin served as positive control.
Chromatographic separation and mass spectrometric detection were identical to the parameters already described for the fragmentation experiments for phase I and phase II glucuronidation metabolism. For sulfation, the HPLC-qToF-HRMS was operated in negative ionization mode at -4.5 kV and otherwise identical source parameters as previously described. […]

Data set [10] deals with Human liver carcinoma cells (HepG2, HB-8065). Set-up: method as in Steinert et al., 2022. To be noted: HepG2; ref Steinert et al., 2022; cited from earlier work.
Data set [11] deals with lung adenocarcinoma cells (A549, CCL-185). Set-up: method as in Steinert et al., 2022. The following applies: ref Steinert et al., 2022; cited from earlier work.
Data set [12] concerns plasma coagulation. On the set-up: method as in Steinert et al., 2022. The following applies: ref Steinert et al., 2022; cited from earlier work.
For data set [13], the system named is plasma coagulation. Set-up: method as in Steinert et al., 2022. To be noted: ref Steinert et al., 2022; cited from earlier work. The source holds these as a separate data set.

T2 sequence (P00742 235-488 limits assumed): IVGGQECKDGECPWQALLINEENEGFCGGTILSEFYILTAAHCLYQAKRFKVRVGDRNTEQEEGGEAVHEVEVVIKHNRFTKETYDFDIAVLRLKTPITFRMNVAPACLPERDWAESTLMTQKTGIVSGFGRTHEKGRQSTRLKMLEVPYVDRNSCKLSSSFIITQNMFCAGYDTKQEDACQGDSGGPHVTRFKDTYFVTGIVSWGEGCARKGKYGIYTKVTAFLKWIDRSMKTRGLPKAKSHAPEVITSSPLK
T2 sequence (P00742 41-179 partner limits assumed): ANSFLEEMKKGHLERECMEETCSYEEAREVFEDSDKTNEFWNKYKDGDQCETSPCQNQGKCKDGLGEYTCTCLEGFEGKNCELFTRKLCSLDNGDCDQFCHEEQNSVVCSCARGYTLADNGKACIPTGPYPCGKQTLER
T4 sequence (P00761 9-231): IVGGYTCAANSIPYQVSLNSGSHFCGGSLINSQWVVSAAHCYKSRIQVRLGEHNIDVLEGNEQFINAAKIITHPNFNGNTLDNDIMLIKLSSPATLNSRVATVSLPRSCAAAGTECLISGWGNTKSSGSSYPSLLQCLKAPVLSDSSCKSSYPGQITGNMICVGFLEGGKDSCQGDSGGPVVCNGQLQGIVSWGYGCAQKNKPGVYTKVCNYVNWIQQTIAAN
T1 sequence (P00748 373-615 limits assumed, other chains not shown): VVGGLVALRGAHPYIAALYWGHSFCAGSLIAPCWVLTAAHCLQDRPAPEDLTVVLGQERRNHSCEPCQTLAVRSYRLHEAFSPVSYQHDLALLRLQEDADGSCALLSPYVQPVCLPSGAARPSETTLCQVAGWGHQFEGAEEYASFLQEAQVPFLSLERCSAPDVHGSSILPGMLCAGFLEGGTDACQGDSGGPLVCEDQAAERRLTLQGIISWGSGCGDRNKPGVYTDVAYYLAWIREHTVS
T3 sequence (P03951 388-625 limits assumed): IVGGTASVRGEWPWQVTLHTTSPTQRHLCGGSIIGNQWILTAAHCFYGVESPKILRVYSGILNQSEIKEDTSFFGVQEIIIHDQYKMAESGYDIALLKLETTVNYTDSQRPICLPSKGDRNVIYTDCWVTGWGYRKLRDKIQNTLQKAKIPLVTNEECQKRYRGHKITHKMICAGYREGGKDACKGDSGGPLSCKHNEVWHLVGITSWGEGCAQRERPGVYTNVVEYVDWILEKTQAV
T3 sequence (P03951 19-387 partner limits assumed): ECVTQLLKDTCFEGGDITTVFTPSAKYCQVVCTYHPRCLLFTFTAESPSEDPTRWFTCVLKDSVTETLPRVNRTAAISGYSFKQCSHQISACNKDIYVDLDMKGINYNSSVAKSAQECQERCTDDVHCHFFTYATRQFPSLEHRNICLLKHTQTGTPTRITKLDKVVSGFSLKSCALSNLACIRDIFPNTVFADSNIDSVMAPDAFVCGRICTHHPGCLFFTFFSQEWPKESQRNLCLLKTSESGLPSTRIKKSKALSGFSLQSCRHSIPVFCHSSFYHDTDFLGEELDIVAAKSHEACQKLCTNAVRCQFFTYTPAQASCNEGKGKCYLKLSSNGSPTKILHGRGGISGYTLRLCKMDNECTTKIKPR

Consider `CC(=O)OC1CC2(C)C(CCC(C)C23Cc2c(O)cc4c(c2O3)C(=O)N(CCc2c[nH]c3ccccc23)C4)C(C)(C)C1OC(C)=O` (stereo not shown) [Compound 3b, Acetoxystachybotrylactam acetate-tryptamine], for which the “inhibition of FXIIa” value on human β-FXIIa is “no inhibition”. The “inhibition of FXa” value against human Factor Xa [1] is on record as “no inhibition”. Besides, at human factor XIa, testing at 200 µM gave an inhibition of 17%. Besides, at porcine trypsin, the inhibition of trypsin result is on record as “no inhibition”. Besides, the “metabolism under sulfation conditions, in words” value in [2] and in data set [3] was “did undergo metabolism” throughout. The “concentration at which precipitation in cell culture medium starts” value in data set [4] is listed as at least 1 µM. Besides, the “cytotoxicity (cell viability, T/C), in words” value in data set [5] is “no impact on cell viability was observed”.
On to `[H]/N=C(/N)c1ccc(NCc2nc3cc(C(=O)N(CCC(=O)O)c4ccccn4)ccc3n2C)cc1` [Dabigatran, dabigatran], for which the “inhibition of thrombin (positive control)” value in the data set with human α-thrombin is 98.3 ± 0.1%.
For the compound `O=C(NC[C@H]1CN(c2ccc(N3CCOCC3=O)cc2)C(=O)O1)c1ccc(Cl)s1` [rivaroxaban], the “inhibition of FXa (positive control)” value at human Factor Xa [6] was 99.8 ± 0.3%.
For the compound “acetoxystachybotrylactam acetate-agmatine [Compound 4]”, the “phase I conversion, in words” value in [7] and in data set [8] was “fastest among the reaction products to be metabolized” throughout. Besides, the “metabolism under sulfation conditions, in words” value in data set [2] and in [3] was “did undergo metabolism” in each case. In data set [9], the “glucuronidation: conversion and formation of glucuronides, in words” value is given as “best conversion”. Moreover, the “cytotoxicity, in words” value in data set [10] and in data set [11] was “no cytotoxicity” in each case. The “plasma coagulation, activated partial thromboplastin time” value in the data set with plasma coagulation [12] was “prolonged plasma coagulation”. Moreover, the “plasma coagulation, prothrombin time” value in the data set on plasma coagulation [13] is listed as “prolonged plasma coagulation”.
